Experimental data taken from US10721934B2, “Enhanced preservative” (Arch Chemicals, Inc., priority 2013, dated 2020).
Values after ≈ are worked out from the molar mass of the structure shown.

How the values were obtained:
Type in all cases: cell-based
[1] = test system: mixed bacterial inoculum (Pseudomonas aeruginosa, Enterobacter cloacae, Escherichia coli, Acinetobacter calcoaceticus); test: Repeated inoculation of standard acrylic paint, streak plate rating
Procedure: In the following experiments, a pyrithione, an isothiazolinone, and a biocide enhancing agent in accordance with the present disclosure were combined with a standard acrylic paint. The concentrations of the pyrithione, the isothiazolinone and the biocide enhancing agent were varied. The pyrithione, the isothiazolinone and the biocide enhancing agent were added alone and in various mixtures to the standard acrylic paint.
The acrylic paint was then inoculated three times using a mixed bacterial inoculum. The bacterial inoculum, which comprised a bacterial suspension in water, contained the following four bacteria in equal proportions.
The samples were streak plated at 24, 48, and 72 hours after inoculation. The streak plates were rated as follows;

[2] = test system: Pseudomonas aeruginosa ATCC 15442; test: Minimum Inhibitory Concentration (MIC) test, 96 well microtiter plate; details: for biocide enhancing effect on zinc pyrithione: MIC of blends with ZnPT, Table 1; for MIC: Pseudomonas aeruginosa, ATCC15442, single chemical
Procedure: Microorganisms: Pseudomonas aeruginosa ATCC 15442
(§1) MIC set up: A 96 well microtiter plate Minimum Inhibitory Concentration (MIC) test was run in broth suitable for the test organism. Serially diluted actives were prepared in sterilized water, and the start-up concentration varied depending on the efficacy range. Inocula prepared in 2× suitable broth was added into each well, and the final concentrations of bacteria were adjusted to approximately 5×10^5.

[3] = test system: Escherichia coli; test: MIC test, 96 well microtiter plate; details: single chemical
Procedure: as §1
(§2) Further MIC tests were conducted using different amine compounds in combination with a pyrithione and two different isothiazolinones. The procedures described in Example No. 1 were used.

[4] = test system: Aspergillus brasiliensis; test: MIC test, 96 well microtiter plate; details: single chemical
Procedure: as §1, §2

[5] = test system: Staphylococcus aureus; test: MIC test, 96 well microtiter plate; details: single chemical
Procedure: as §1, §2

[6] = test system: Candida albicans; test: MIC test, 96 well microtiter plate; details: single chemical
Procedure: as §1, §2

[7] = test system: Aureobasidium pullulans; test: MIC test, 96 well microtiter plate; details: single chemical
Procedure: as §1, §2

## CCCCCCCCCCCCN [DDA, 1-dodecylamine]
[1]; Set Four, DDA 600 ppm, 1st inoculation 24 h
  streak plate rating: 5 (>45 viable microorganisms Severely contaminated)
[1]; Set Four, DDA 600 ppm, 1st inoculation 48 h
  streak plate rating: 2 (6-15 viable microorganisms Lightly contaminated)
[1]; Set Four, DDA 600 ppm, 1st inoculation 72 h
  streak plate rating: 0
[1]; Set Four, DDA 600 ppm, 2nd inoculation 24 h
  streak plate rating: 5 (>45 viable microorganisms Severely contaminated)
[1]; Set Four, DDA 600 ppm, 2nd inoculation 48 h
  streak plate rating: 5 (>45 viable microorganisms Severely contaminated)
[1]; Set Four, DDA 600 ppm, 2nd inoculation 72 h
  streak plate rating: 5 (>45 viable microorganisms Severely contaminated)
[1]; Set Four, DDA 600 ppm, 3rd inoculation 24 h
  streak plate rating: 5 (>45 viable microorganisms Severely contaminated)
[1]; Set Four, DDA 600 ppm, 3rd inoculation 48 h
  streak plate rating: 5 (>45 viable microorganisms Severely contaminated)
[1]; Set Four, DDA 600 ppm, 3rd inoculation 72 h
  streak plate rating: 5 (>45 viable microorganisms Severely contaminated)
[1]; Set One, DDA 600 ppm, 1st inoculation 24 h
  streak plate rating: 5 (>45 viable microorganisms Severely contaminated)
[1]; Set One, DDA 600 ppm, 1st inoculation 48 h
  streak plate rating: 5 (>45 viable microorganisms Severely contaminated)
[1]; Set One, DDA 600 ppm, 1st inoculation 72 h
  streak plate rating: 5 (>45 viable microorganisms Severely contaminated)
[1]; Set One, DDA 600 ppm, 2nd inoculation 24 h
  streak plate rating: 5 (>45 viable microorganisms Severely contaminated)
[1]; Set One, DDA 600 ppm, 2nd inoculation 48 h
  streak plate rating: 5 (>45 viable microorganisms Severely contaminated)
[1]; Set One, DDA 600 ppm, 3rd inoculation 24 h
  streak plate rating: 5 (>45 viable microorganisms Severely contaminated)
[1]; Set One, DDA 600 ppm, 3rd inoculation 48 h
  streak plate rating: 5 (>45 viable microorganisms Severely contaminated)
[1]; Set One, DDA 600 ppm, 3rd inoculation 72 h
  streak plate rating: 5 (>45 viable microorganisms Severely contaminated)
[1]; Set One, DDA 900 ppm, 1st inoculation 24 h
  streak plate rating: 5 (>45 viable microorganisms Severely contaminated)
[1]; Set One, DDA 900 ppm, 1st inoculation 48 h
  streak plate rating: 5 (>45 viable microorganisms Severely contaminated)
[1]; Set One, DDA 900 ppm, 1st inoculation 72 h
  streak plate rating: 5 (>45 viable microorganisms Severely contaminated)
[1]; Set One, DDA 900 ppm, 2nd inoculation 24 h
  streak plate rating: 5 (>45 viable microorganisms Severely contaminated)
[1]; Set One, DDA 900 ppm, 2nd inoculation 48 h
  streak plate rating: 5 (>45 viable microorganisms Severely contaminated)
[1]; Set One, DDA 900 ppm, 3rd inoculation 24 h
  streak plate rating: 5 (>45 viable microorganisms Severely contaminated)
[1]; Set One, DDA 900 ppm, 3rd inoculation 48 h
  streak plate rating: 5 (>45 viable microorganisms Severely contaminated)
[1]; Set One, DDA 900 ppm, 3rd inoculation 72 h
  streak plate rating: 5 (>45 viable microorganisms Severely contaminated)
[1]; Set One, DDA 1200 ppm, 1st inoculation 24 h
  streak plate rating: 5 (>45 viable microorganisms Severely contaminated)
[1]; Set One, DDA 1200 ppm, 1st inoculation 48 h
  streak plate rating: 5 (>45 viable microorganisms Severely contaminated)
[1]; Set One, DDA 1200 ppm, 1st inoculation 72 h
  streak plate rating: 5 (>45 viable microorganisms Severely contaminated)
[1]; Set One, DDA 1200 ppm, 2nd inoculation 24 h
  streak plate rating: 5 (>45 viable microorganisms Severely contaminated)
[1]; Set One, DDA 1200 ppm, 2nd inoculation 48 h
  streak plate rating: 5 (>45 viable microorganisms Severely contaminated)
[1]; Set One, DDA 1200 ppm, 3rd inoculation 24 h
  streak plate rating: 5 (>45 viable microorganisms Severely contaminated)
[1]; Set One, DDA 1200 ppm, 3rd inoculation 48 h
  streak plate rating: 5 (>45 viable microorganisms Severely contaminated)
[1]; Set One, DDA 1200 ppm, 3rd inoculation 72 h
  streak plate rating: 5 (>45 viable microorganisms Severely contaminated)
[1]; Set One, DDA 1800 ppm, 1st inoculation 24 h
  streak plate rating: 2 (6-15 viable microorganisms Lightly contaminated)
[1]; Set One, DDA 1800 ppm, 1st inoculation 48 h
  streak plate rating: 3 (16-30 viable microorganisms Moderately contaminated)
[1]; Set One, DDA 1800 ppm, 1st inoculation 72 h
  streak plate rating: 1 (1-5 viable microorganisms Very lightly contaminated)
[1]; Set One, DDA 1800 ppm, 2nd inoculation 24 h
  streak plate rating: 5 (>45 viable microorganisms Severely contaminated)
[1]; Set One, DDA 1800 ppm, 2nd inoculation 48 h
  streak plate rating: 5 (>45 viable microorganisms Severely contaminated)
[1]; Set One, DDA 1800 ppm, 3rd inoculation 24 h
  streak plate rating: 5 (>45 viable microorganisms Severely contaminated)
[1]; Set One, DDA 1800 ppm, 3rd inoculation 48 h
  streak plate rating: 5 (>45 viable microorganisms Severely contaminated)
[1]; Set One, DDA 1800 ppm, 3rd inoculation 72 h
  streak plate rating: 5 (>45 viable microorganisms Severely contaminated)
[1]; Set Two, DDA alone, ppm not given, 1st inoculation 24 h
  streak plate rating: 5 (>45 viable microorganisms Severely contaminated)
[1]; Set Two, DDA alone, ppm not given, 1st inoculation 48 h
  streak plate rating: 5 (>45 viable microorganisms Severely contaminated)
[1]; Set Two, DDA alone, ppm not given, 1st inoculation 72 h
  streak plate rating: 5 (>45 viable microorganisms Severely contaminated)
[1]; Set Two, DDA alone, ppm not given, 2nd inoculation 24 h
  streak plate rating: 5 (>45 viable microorganisms Severely contaminated)
[1]; Set Two, DDA alone, ppm not given, 2nd inoculation 48 h
  streak plate rating: 5 (>45 viable microorganisms Severely contaminated)
[1]; Set Two, DDA alone, ppm not given, 2nd inoculation 72 h
  streak plate rating: 5 (>45 viable microorganisms Severely contaminated)
[1]; Set Two, DDA alone, ppm not given, 3rd inoculation 24 h
  streak plate rating: 5 (>45 viable microorganisms Severely contaminated)
[1]; Set Two, DDA alone, ppm not given, 3rd inoculation 48 h
  streak plate rating: 5 (>45 viable microorganisms Severely contaminated)
[1]; Set Two, DDA alone, ppm not given, 3rd inoculation 72 h
  streak plate rating: 5 (>45 viable microorganisms Severely contaminated)
[2]; MIC of blends with BIT, Table 2
  biocide enhancing effect on the isothiazolin: had an enhancing effect on the isothiazolin
[2]
  biocide enhancing effect on zinc pyrithione: enhance the effectiveness of the zinc pyrithione
  MIC: 200 µg/mL (≈ 1080 µM)

## CCCCCCCCCCCCCCCCCCN(C)C [DMODA, N,N-Dimethyloctadecylamine]
[2]
  biocide enhancing effect on zinc pyrithione: enhance the effectiveness of the zinc pyrithione
  MIC: > 640 µg/mL

## CCCCCCCCCCCCN1CCOCC1 [DDM, 4-Dodecylmorpholine]
[1]; Set Three, DDM 1200 ppm, 1st inoculation 24 h
  streak plate rating: 5 (>45 viable microorganisms Severely contaminated)
[1]; Set Three, DDM 1200 ppm, 1st inoculation 48 h
  streak plate rating: 5 (>45 viable microorganisms Severely contaminated)
[1]; Set Three, DDM 1200 ppm, 1st inoculation 72 h
  streak plate rating: 5 (>45 viable microorganisms Severely contaminated)
[1]; Set Three, DDM 1200 ppm, 2nd inoculation 24 h
  streak plate rating: 5 (>45 viable microorganisms Severely contaminated)
[1]; Set Three, DDM 1200 ppm, 2nd inoculation 48 h
  streak plate rating: 5 (>45 viable microorganisms Severely contaminated)
[1]; Set Three, DDM 1200 ppm, 2nd inoculation 72 h
  streak plate rating: 5 (>45 viable microorganisms Severely contaminated)
[1]; Set Three, DDM 1200 ppm, 3rd inoculation 24 h
  streak plate rating: 5 (>45 viable microorganisms Severely contaminated)
[1]; Set Three, DDM 1200 ppm, 3rd inoculation 48 h
  streak plate rating: 5 (>45 viable microorganisms Severely contaminated)
[1]; Set Three, DDM 1200 ppm, 3rd inoculation 72 h
  streak plate rating: 5 (>45 viable microorganisms Severely contaminated)

## CCCCCCCC[N+](C)(C)[O-] [DMOA Oxide, N,N-dimethyloctylamine-n-oxide]
[3]; Escherichia coli, read-out: Minimum Inhibitory Concentration
  MIC: 750 µg/mL
[4]; Aspergillus brasiliensis, read-out: Minimum Inhibitory Concentration
  MIC: 500 µg/mL
[4]
  Minimum Inhibitory Concentration: 500 ppm
[5]; Staphylococcus aureus, read-out: Minimum Inhibitory Concentration
  MIC: 250 µg/mL
[6]; Candida albicans, read-out: Minimum Inhibitory Concentration
  MIC: 375 µg/mL
[7]; Aureobasidium pullulans, read-out: Minimum Inhibitory Concentration
  MIC: 500 µg/mL

## CCCCn1sc2ccccc2c1=O [BBIT]
[3]
  Minimum Inhibitory Concentration: 80.0 ppm
[4]
  Minimum Inhibitory Concentration: 1.9 ppm
[5]
  Minimum Inhibitory Concentration: 5.0 ppm
[6]
  Minimum Inhibitory Concentration: 3.75 ppm
[7]
  Minimum Inhibitory Concentration: 2.5 ppm
